Measured values reported in US6821980B1, “Substituted 5-benzyl-2,4-diaminopyrimidines” (Basilea Pharmaceutica AG, priority 1999, dated 2004).
≈ marks a conversion by molar mass, not a printed value. Where two headings read alike, the source gives them in different places.

How the values were obtained:
[1] = tested on: Streptococcus pneumoniae 1/1; experiment: MIC against Streptococcus pneumoniae 1/1; assay type: cell-based; conditions: Streptococcus pneumoniae 1/1, trimethoprim- and penicillin-resistant, serotype 6, clinical isolate; for MIC: read-out: MIC Sp1/1
[2] = tested on: Staphylococcus aureus 101; experiment: MIC against Staphylococcus aureus 101; assay type: cell-based; conditions: Staphylococcus aureus 101, MRSA- and trimethoprim-resistant, clinical isolate; for MIC: read-out: MIC Sa101
[3] = molecular target: T1, purified DHFR of strain Sp1/1 of Streptococcus pneumoniae (Streptococcus pneumoniae serotype 4, UniProt Q54801); assay type: biochemical; conditions: IC50 against purified DHFR of strain Sp1/1
T1 sequence (Q54801 1-168 I100L): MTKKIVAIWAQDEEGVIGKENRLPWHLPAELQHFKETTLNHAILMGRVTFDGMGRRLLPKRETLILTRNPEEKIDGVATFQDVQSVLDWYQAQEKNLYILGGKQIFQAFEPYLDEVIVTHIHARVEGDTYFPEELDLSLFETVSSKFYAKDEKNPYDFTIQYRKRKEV

[4] = molecular target: purified DHFR of strain 157/4696 of Staphylococcus aureus (Staphylococcus aureus, UniProt P13955); experiment: biochemical
[5] = Table 2, IC50 against purified DHFR of strain 157/4696 (highly trimethoprim-resistant; clinical isolate), read-out: DHFR Sa1

purified DHFR of strain 157/4696 of Staphylococcus aureus, sequence (P13955 whole entry): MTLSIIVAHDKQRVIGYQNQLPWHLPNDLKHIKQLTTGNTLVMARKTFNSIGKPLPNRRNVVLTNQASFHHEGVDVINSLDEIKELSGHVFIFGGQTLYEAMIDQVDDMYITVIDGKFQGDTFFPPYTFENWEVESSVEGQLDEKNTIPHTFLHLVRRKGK

In the case of `CCOc1cc(Cc2cnc(N)nc2N)cc(OS(=O)(=O)N2CCCC2)c1-c1ccc(NC)cc1` [Example 26-e, Pyrrolidine-1-sulphonic acid 4-(2,4-diamino-pyrimidin-5-ylmethyl)-6-ethoxy-4′-methylamino-biphenyl-2-yl ester], the MIC ([1]; Table 2) is reported as 1 µg/mL (≈ 2.01 µM), the MIC ([2]; Table 2) is reported as 1 µg/mL (≈ 2.01 µM) and the IC50 ([3]; Table 2) is reported as 0.0023 µM. It also gave an IC50 [4] of 0.13 µM.
`CCOc1cc(Cc2cnc(N)nc2N)cc(OS(=O)(=O)N(CC)CC)c1-c1ccc(NC)cc1` [Example 26-f, Diethylsulphamic acid 4-(2,4-diamino-pyrimidin-5-ylmethyl)-6-ethoxy-4′-methylamino-biphenyl-2-yl ester] was tested, and the MIC ([1]; Table 2) was 1 µg/mL (≈ 2 µM), the MIC ([2]; Table 2) was 2 µg/mL (≈ 4 µM) and the IC50 ([3]; Table 2) was 0.0088 µM. It also gave an IC50 [4] of 0.23 µM.
Work on `CCOc1cc(Cc2cnc(N)nc2N)cc(OS(=O)(=O)N2CCOCC2)c1-c1ccc(NC)cc1` [Example 26c, Morpholine-4-sulphonic acid 4-(2,4-diamino-pyrimidin-5-ylmethyl)-6-ethoxy-4′-methylamino-biphenyl-2-yl ester] yielded an MIC ([1]; Table 1) of 0.5 µg/mL (≈ 0.972 µM), an MIC ([2]; Table 1) of 1 µg/mL (≈ 1.94 µM) and an IC50 ([3]; Table 1) of 0.0032 µM. For the same compound, the IC50 [4] was 0.056 µM.
Compound `CCOc1cc(Cc2cnc(N)nc2N)cc(OS(=O)(=O)N(C)C)c1-c1ccc(N)c(C)c1` [Example 27-a, Dimethylsulphamic acid 4′-amino-4-(2,4-diamino-pyrimidin-5-ylmethyl)-6-ethoxy-3′-methyl-biphenyl-2-yl ester] has an MIC ([1]; Table 2) of 1 µg/mL (≈ 2.12 µM), an MIC ([2]; Table 2) of 2 µg/mL (≈ 4.23 µM) and an IC50 ([3]; Table 2) of 0.022 µM. The IC50 [4] was 0.22 µM.
Work on `CCOc1cc(Cc2cnc(N)nc2N)cc(OS(=O)(=O)N(C)CC)c1-c1ccc(N)c(C)c1` [Example 27-b, N-Ethyl-N-methyl-sulphamic acid 4′-amino-4-(2,4-diamino-vyrimidin-5-ylmethyl)-6-ethoxy-3′-methyl-biphenyl-2-yl ester] yielded an MIC ([1]; Table 2) of 1 µg/mL (≈ 2.06 µM), an MIC ([2]; Table 2) of 2 µg/mL (≈ 4.11 µM) and an IC50 ([3]; Table 2) of 0.014 µM. It also gave an IC50 [4] of 0.19 µM.
`CCOc1cc(Cc2cnc(N)nc2N)cc(OS(=O)(=O)N(C)C2CC2)c1-c1ccc(N)c(C)c1` [Example 27-c, N-Cyclopropyl-N-methyl-sulphamic acid 4′-amino-4-(2,4-diamino-pyrimidin-5-ylmethyl)-6-ethoxy-3′-methyl-biphenyl-2-yl ester] showed an MIC ([1]; Table 2) of 1 µg/mL (≈ 2.01 µM), an MIC ([2]; Table 2) of 1 µg/mL (≈ 2.01 µM) and an IC50 ([3]; Table 2) of 0.0026 µM. For the same compound, the IC50 [4] was 0.18 µM.
Compound `CCOc1cc(Cc2cnc(N)nc2N)cc(OS(=O)(=O)N(C)C)c1-c1ccc(N)c(F)c1` [Example 28-a, Dimethylsullhamic acid 4′-amino-4-(2,4-diamino-pyrimidin-5-ylmethyl)-6-ethoxy-3′-fluoro-biphenyl-2-yl ester] has an MIC ([1]; Table 2) of 1 µg/mL (≈ 2.1 µM), an MIC ([2]; Table 2) of 2 µg/mL (≈ 4.2 µM) and an IC50 ([3]; Table 2) of 0.0058 µM. For the same compound, the IC50 [4] was 0.32 µM.
`CCOc1cc(Cc2cnc(N)nc2N)cc(OS(=O)(=O)N(C)CC)c1-c1ccc(N)c(F)c1` [Example 28-b, N-Ethyl-N-methyl-sulphamic acid 4′-amino-4-(2,4-diamino-pyrimidin-5-ylmethyl)-6-ethoxy-3′-fluoro-biphenyl-2-yl ester] was tested, and the MIC ([1]; Table 2) was 1 µg/mL (≈ 2.04 µM), the MIC ([2]; Table 2) was 2 µg/mL (≈ 4.08 µM) and the IC50 ([3]; Table 2) was 0.0068 µM. The IC50 [4] was 0.32 µM.
Work on `CCOc1cc(Cc2cnc(N)nc2N)cc(OS(=O)(=O)N(C)C2CC2)c1-c1ccc(N)c(F)c1` [Example 28-c, N-Cyclopropyl-N-methyl-sulphamic acid 4′-amino-4-(2,4-diamino-pvrimidin-5-ylmethyl)-6-ethoxy-3′-fluoro-biphenyl-2-yl ester] yielded an MIC ([1]; Table 2) of 1 µg/mL (≈ 1.99 µM), an MIC ([2]; Table 2) of 2 µg/mL (≈ 3.98 µM) and an IC50 ([3]; Table 2) of 0.018 µM. For the same compound, the IC50 [4] was 0.24 µM.
Compound `CCOc1cc(Cc2cnc(N)nc2N)cc(OS(=O)(=O)N(C)C2CC2)c1-c1cc(N)cc(F)c1` [Example 29-a, N-Cyclopropyl-N-methyl-sulphamic acid 3′-amino-4-(2,4-diamino-pyrimidin-5-ylmethyl)-6-ethoxy-5′-fluoro-biphenyl-2-yl ester] has an MIC ([1]; Table 2) of 2 µg/mL (≈ 3.98 µM), an MIC ([2]; Table 2) of 1 µg/mL (≈ 1.99 µM) and an IC50 ([3]; Table 2) of 0.0063 µM. It also gave an IC50 [4] of 0.22 µM.
Compound `CCOc1cc(Cc2cnc(N)nc2N)cc(OS(=O)(=O)N(C)C)c1-c1cc(N)cc(F)c1` [Example 29-b, Dimethylsulphamic acid 3′-amino-4-(2,4-diamino-pyrimidin-5-ylmethyl)-6-ethoxy-5′-fluoro-biphenyl-2-yl ester] has an MIC ([1]; Table 2) of 2 µg/mL (≈ 4.2 µM), an MIC ([2]; Table 2) of 2 µg/mL (≈ 4.2 µM) and an IC50 ([3]; Table 2) of 0.014 µM. It also gave an IC50 [4] of 0.095 µM.
`CCOc1cc(Cc2cnc(N)nc2N)cc(OS(=O)(=O)N(C)CC)c1-c1cc(N)cc(F)c1` [Example 29-c, N-Ethyl-N-methyl-sulphamic acid 3′-amino-4-(2,4-diamino-pyrimidin-5-ylmethyl)-6-ethoxy-5′-fluoro-biphenyl-2-yl ester] showed an MIC ([1]; Table 2) of 2 µg/mL (≈ 4.08 µM), an MIC ([2]; Table 2) of 2 µg/mL (≈ 4.08 µM) and an IC50 ([3]; Table 2) of 0.0052 µM. It also gave an IC50 [4] of 0.17 µM.
Work on `CCOc1cc(Cc2cnc(N)nc2N)cc(OS(=O)(=O)N(C)C)c1-c1ccc(CN2CCOCC2)c(N)c1` [Example 30-a, Dimethylsulphamic acid 3′-amino-4-(2,4-diamino-pyrimidin-5-ylmethyl)-6-ethoxy-4′-morpholin-4-ylmethyl-biphenyl-2-yl ester] yielded an MIC ([1]; Table 2) of 2 µg/mL (≈ 3.59 µM), an MIC ([2]; Table 2) of 2 µg/mL (≈ 3.59 µM) and an IC50 ([3]; Table 2) of 0.0045 µM. For the same compound, the IC50 [4] was 0.088 µM.
Work on `CCOc1cc(Cc2cnc(N)nc2N)cc(OS(=O)(=O)N(C)C2CC2)c1-c1ccc(CN2CCOCC2)c(N)c1` [Example 30-b, N-Cyclopropyl-N-methyl-sulphamic acid 3′-amino-4-(2,4-diamino-pyrimidin-5-ylmethyl)-6-ethoxy-4′-morpholin-4-ylmethyl-biphenyl-2-yl ester] yielded an MIC ([1]; Table 2) of 2 µg/mL (≈ 3.43 µM), an MIC ([2]; Table 2) of 2 µg/mL (≈ 3.43 µM) and an IC50 ([3]; Table 2) of 0.014 µM. It also gave an IC50 [4] of 0.037 µM.
With `CCOc1cc(Cc2cnc(N)nc2N)cc(OS(=O)(=O)N(C)CC)c1-c1ccc(CN2CCOCC2)c(N)c1` [Example 30-c, N-Ethyl-N-methyl-sulphamic acid 3′-amino-4-(2,4-diamino-pyrimidin-5-ylmethyl)-6-ethoxy-4′-morpholin-4-ylmethyl-biphenyl-2-yl ester] the MIC ([1]; Table 2) was 2 µg/mL (≈ 3.5 µM), the MIC ([2]; Table 2) was 2 µg/mL (≈ 3.5 µM) and the IC50 ([3]; Table 2) was 0.016 µM. For the same compound, the IC50 [4] was 0.14 µM.
Compound `CCOc1cc(Cc2cnc(N)nc2N)cc(OS(=O)(=O)N(C)CC)c1-c1ccc(C)c(N)c1` [Example 31-b, N-Ethyl-N-methyl-sulphamic acid 3′-amino-4-(2,4-diamino-pyrimidin-5-ylmethyl)-6-ethoxy-4′-methyl-biphenyl-2-yl ester] has an MIC ([1]; Table 2) of 1 µg/mL (≈ 2.06 µM), an MIC ([2]; Table 2) of 2 µg/mL (≈ 4.11 µM) and an IC50 ([3]; Table 2) of 0.0044 µM. For the same compound, the IC50 [4] was 0.13 µM.
For `CCOc1cc(Cc2cnc(N)nc2N)cc(OS(=O)(=O)N(C)C)c1-c1ccc(C)c(N)c1` [Example 31a, Dimethylsulphamic acid 3′-amino-4-(2,4-diamino-pyrimidin-5-ylmethyl)-6-ethoxy-4′-methyl-biphenyl-2-yl ester], the MIC ([1]; Table 1) was 1 µg/mL (≈ 2.12 µM), the MIC ([2]; Table 1) was 1 µg/mL (≈ 2.12 µM) and the IC50 ([3]; Table 1) was 0.0019 µM. The IC50 [4] was 0.11 µM.
With `CCCS(=O)(=O)Oc1cc(Cc2cnc(N)nc2N)cc(OCC)c1-c1ccc(CN2CCOCC2)c(N)c1` [Example 32-a, Pronane-1-sulophonic acid 3′-amino-4-(2,4-diamino-pyrimidin-5-ylmethyl)-6-ethoxy-4′-morpholinemethyl-4-ylmethyl-biphenyl-2-yl ester] the “MIC Sp1/1” value ([1]; Table 2) was 1 µg/mL (≈ 1.8 µM), the “MIC Sa101” value ([2]; Table 2) was 4 µg/mL (≈ 7.19 µM) and the IC50 ([3]; Table 2) was 0.0046 µM. It also gave an IC50 [4, 5] of 0.12 µM.
`CCCS(=O)(=O)Oc1cc(Cc2cnc(N)nc2N)cc(OCC)c1-c1ccc(N)c(C)c1` [Example 32-b] was tested, and the “MIC Sp1/1” value ([1]; Table 2) was 1 µg/mL (≈ 2.12 µM), the “MIC Sa101” value ([2]; Table 2) was 4 µg/mL (≈ 8.48 µM) and the IC50 ([3]; Table 2) was 0.0042 µM. For the same compound, the IC50 [4, 5] was 0.16 µM.
For `CCCS(=O)(=O)Oc1cc(Cc2cnc(N)nc2N)cc(OCC)c1-c1ccc(F)c(N)c1` [Example 32-c], the “MIC Sp1/1” value ([1]; Table 2) was 1 µg/mL (≈ 2.1 µM), the “MIC Sa101” value ([2]; Table 2) was 4 µg/mL (≈ 8.41 µM) and the IC50 ([3]; Table 2) was 0.0061 µM. It also gave an IC50 [4, 5] of 0.13 µM.
With `CCCS(=O)(=O)Oc1cc(Cc2cnc(N)nc2N)cc(OCC)c1-c1ccc(OC)c(N)c1` [Example 32-d, Propane-1-sulphonic acid 3′-amino-4-(2,4-diamino-pyrimidin-5-ylmethyl)-6-ethoxy-4′-methoxy-4-ylmethyl-biphenyl-2-yl ester] the “MIC Sp1/1” value ([1]; Table 2) was 1 µg/mL (≈ 2.05 µM), the “MIC Sa101” value ([2]; Table 2) was 2 µg/mL (≈ 4.1 µM) and the IC50 ([3]; Table 2) was 0.0059 µM. The IC50 [4, 5] was 0.14 µM.
With `CCCS(=O)(=O)Oc1cc(Cc2cnc(N)nc2N)cc(OCC)c1-c1ccc(N)c(F)c1` [Example 32-e, Propane-1-sulphonic acid 4′-amino-4-(2,4-diamino-pyrimidin-5-ylmethyl)-6-ethoxy-3′-fluoro-4-ylmethyl-biphenyl-2-yl ester] the “MIC Sp1/1” value ([1]; Table 2) was 1 µg/mL (≈ 2.1 µM), the “MIC Sa101” value ([2]; Table 2) was 4 µg/mL (≈ 8.41 µM) and the IC50 ([3]; Table 2) was 0.0068 µM. For the same compound, the IC50 [4, 5] was 0.28 µM.
`CCCS(=O)(=O)Oc1cc(Cc2cnc(N)nc2N)cc(OCC)c1-c1cc(N)cc(F)c1` [Example 32-f, Propane-1-sulphonic acid 3′-amino-4-(2,4-diamino-pyrimidin-5-ylmethyl)-6-ethoxy-5′-fluoro-4-ylmethyl-biphenyl-2-yl ester] was tested, and the “MIC Sp1/1” value ([1]; Table 2) was 1 µg/mL (≈ 2.1 µM), the “MIC Sa101” value ([2]; Table 2) was 4 µg/mL (≈ 8.41 µM) and the IC50 ([3]; Table 2) was 0.03 µM. The IC50 [4, 5] was 0.42 µM.
For `CCCS(=O)(=O)Oc1cc(Cc2cnc(N)nc2N)cc(OCC)c1-c1ccc(CN(C)C)c(N)c1` [Example 32-g, Propane-1-sulphonic acid 3′-amino-4-(2,4-diamino-pyrimidin-5-ylmethyl)-6-ethoxy-4′-dimethylaminomethyl-4-ylmethyl-biphenyl-2-yl ester], the “MIC Sp1/1” value ([1]; Table 2) was 4 µg/mL (≈ 7.77 µM), the “MIC Sa101” value ([2]; Table 2) was 8 µg/mL (≈ 15.5 µM) and the IC50 ([3]; Table 2) was 0.075 µM. It also gave an IC50 [4, 5] of 0.068 µM.
